A short description of data set [1]: Total solubility measured on pH 7.4 buffer at 25 degree C. It counts as ADME. Conditions: read-out: S.
A short description of data set [2]: pKa value in 30% EtOH-H20. The data set is classed as physicochemical. Conditions: 30% EtOH-H2O.
Data set [3] addresses T1, Carbonic anhydrase 2 (Homo sapiens, UniProt P00918).
Description: In vitro inhibition against purified human erythrocyte carbonic anhydrase II was determined (acetozolamide used as control.)
Data set [4] addresses T1, Carbonic anhydrase 2. The source holds these as a separate data set.
Description: In vitro binding to human erythrocyte Carbonic anhydrase II was determined by fluorescence competition assay employing the fluorescent CA inhibitor dansylamide
Data set [5] in a line: Solubility (pH 7.4 buffer ar 25 degree C). It counts as physicochemical. Conditions: read-out: S.
Data set [6] has as its target T1, Carbonic anhydrase 2. The source holds these as a separate data set.
Description: In vitro binding to human erythrocyte carbonic anhydrase was determined by fluorescence competition assay employing the fluorescent CA inhibitor dansylamide
Data set [7] can be described thus: Partition coefficient determined in 1-octanol buffer pH 7.4. The conditions noted are these: octanol/water. It counts as physicochemical.

In brackets after ≈: the same amount, converted by molar mass.

The pKa is the negative logarithm of the acid dissociation constant. High values mean a weaker acid or stronger base, low ones a stronger acid or weaker base. What is called IC50 is the point on the concentration scale where inhibition reaches its midpoint. By Ki is commonly meant a dissociation constant, usually derived from enzyme kinetics or from competition with a known ligand. A high value points to a looser hold on the target. In the case of `NS(=O)(=O)c1cc2c(s1)C(=O)CCS2`, the solubility in data set [1] was found to be 80 µg/mL (≈ 0.321 mM). In data set [2], the pKa was found to be 8.45. The molecule further came in with a 50% inhibitory concentration (IC50) in data set [3] of 0.0035 µM. In addition, in data set [4], affinity was put at a Ki of 0.00115 µM.
For `NS(=O)(=O)c1cc2c(s1)C(O)CC[S+]2[O-]` (configuration not stated), the solubility in data set [5] stood at 7200 µg/mL (≈ 26.9 mM). In addition, the pKa in data set [2] was determined as 8.82. In data set [3], this molecule registered an IC50 of 0.25 µM. In addition, the affinity in data set [6] corresponds to a Ki of 0.309 µM.
`NS(=O)(=O)c1cc2c(s1)CC(O)CS2(=O)=O` (configuration not stated): the Partition coefficient in data set [7] is reported as 0.2. For the same molecule, the solubility in data set [5] amounted to 7300 µg/mL (≈ 25.8 mM). The pKa in data set [2] is 8.52. The IC50 in data set [3] was 0.04 µM. For the same molecule, the affinity in data set [6] corresponds to a Ki of 0.0182 µM.
As for `NS(=O)(=O)c1cc2c(s1)SCCC2O` (configuration not stated), the solubility in data set [5] is 640 µg/mL (≈ 2.55 mM). In data set [2], this molecule registered a pKa of 9.4. For the same molecule, it took 0.03 µM to reach half-maximal inhibition in data set [3] (IC50). The Ki in data set [4] is 0.028 µM.
Turning to `NS(=O)(=O)c1cc2c(s1)C(=O)CCS2(=O)=O`, the Partition coefficient in data set [7] was determined as 0.63. Besides, the solubility in data set [5] was 60 µg/mL (≈ 0.213 mM). In data set [2], the pKa amounted to 7.32. The half-maximal inhibitory concentration (IC50) in data set [3] was determined as 0.022 µM. The molecule further came in with an inhibition constant Ki in data set [4] of 0.0141 µM.
Take `NS(=O)(=O)c1cc2c(s1)SCCC2=O`: the solubility in data set [5] came out at 70 µg/mL (≈ 0.281 mM). The molecule further came in with a pKa in data set [2] of 8.6. The molecule also showed an IC50 in data set [3] of 0.0085 µM. Affinity in data set [4] was put at a Ki of 0.00363 µM.
On to `NS(=O)(=O)c1cc2c(s1)[S+]([O-])CCC2O` (configuration not stated), for which the solubility in data set [5] was 12000 µg/mL (≈ 44.9 mM). This molecule returned a pKa in data set [2] of 8.68. For the same molecule, in data set [3], it took 0.1 µM to reach half-maximal inhibition (IC50). In data set [6], this molecule gave an inhibition constant (Ki) of 0.104 µM.
For `NS(=O)(=O)c1cc2c(s1)S(=O)(=O)CC[C@H]2O`, the Partition coefficient in data set [7] stood at 0.42. In addition, the solubility in data set [5] was 6300 µg/mL (≈ 22.2 mM). The same molecule had a pKa in data set [2] of 8.35.
For `NS(=O)(=O)c1cc2c(s1)S(=O)(=O)CC[C@@H]2O`, in that order: 0.42, 6400 µg/mL (≈ 22.6 mM) and 8.3.
`CC(C)(C)C(=O)Oc1ccc2nc(S(N)(=O)=O)sc2c1`: the solubility in data set [5] is 58 µg/mL (≈ 0.184 mM).
In data set [7], `NS(=O)(=O)c1cc2c(s1)S(=O)(=O)CCC2O` (configuration not stated) yielded a Partition coefficient of 0.45. Further, in data set [5], the solubility stood at 12500 µg/mL (≈ 44.1 mM). The molecule also had a pKa in data set [2] of 8.35.
As to `NS(=O)(=O)c1cc2c(s1)S(=O)(=O)CCC2`, the solubility in data set [5] came out at 560 µg/mL (≈ 2.09 mM). The molecule also had a pKa in data set [2] of 8.35. The IC50 in data set [3] stood at 0.0045 µM. For the same molecule, the affinity in data set [6], expressed as Ki, was 0.0033 µM.
The molecule `NS(=O)(=O)c1cc2c(s1)S(=O)(=O)CCC2=O` displayed a Partition coefficient in data set [7] of 0.92. The solubility in data set [5] is 270 µg/mL (≈ 0.96 mM). Besides, in data set [2], the pKa is 7.92. The same molecule had a concentration for half-maximal inhibition (IC50) in data set [3] of 0.005 µM.
Turning to `NS(=O)(=O)c1cc2c(s1)C(O)CCS2(=O)=O` (configuration not stated), the solubility in data set [5] came to 15000 µg/mL (≈ 52.9 mM). Further, the pKa in data set [2] amounted to 8.34. The molecule also registered an IC50 in data set [3] of 0.04 µM. In data set [4], this molecule registered a Ki of 0.0305 µM.
As for `NS(=O)(=O)c1cc2c(s1)S(=O)(=O)CC(O)C2` (configuration not stated), in data set [5], the solubility is 8200 µg/mL (≈ 28.9 mM). In data set [2], this molecule registered a pKa of 8.6. The same molecule displayed an IC50 in data set [3] of 0.01 µM. In data set [6], the Ki was found to be 0.00711 µM.
`NS(=O)(=O)c1cc2c(s1)C(O)CCS2` (configuration not stated) came in with a Partition coefficient in data set [7] of 3. The solubility in data set [5] came to 1400 µg/mL (≈ 5.57 mM). The molecule also registered a pKa in data set [2] of 9. The molecule further yielded an IC50 in data set [3] of 0.023 µM. Moreover, the Ki in data set [4] is 0.0142 µM.
Regarding `CCOc1ccc2nc(S(N)(=O)=O)sc2c1` [ETHOXZOLAMIDE], the solubility in data set [5] turned out to be 24 µg/mL (≈ 0.0929 mM).

(Values after ChEMBL document CHEMBL1123900, “Thienothiopyran-2-sulfonamides: a novel class of water-soluble carbonic anhydrase inhibitors” (J Med Chem, 1987).)
